Measurements published in patent publication US12227501B2, “3-amino-2-[2-(acylamino)pyridin-4-yl]-1,5,6,7-tetrahydro-4h-pyrrolo[3,2-c]pyridin-4-one as CSNK1 inhibitors” (Bayer Aktiengesellschaft, priority 2019, dated 2025).
Values joined by “and” are separate entries in the source; they are usually repeats but may differ in a detail not shown here. Identical values can stand only once. Like-named read-outs stand apart in the source and are kept apart here.

Key:
Type in all cases: biochemical
human CSNK1A1 [1] = target: T1, human CSNK1A1 (Homo sapiens (Human), UniProt P48729); experiment: CSNK1A1 Assay 2 (ADP-Glo, 1 μM ATP); details: substrate biotin-Ahx-KRRRAL-pS-VASLPGL, read-out: CSNK1A1 Assay 2 IC50 [mol/l] (median)
T1 sequence (P48729 whole entry): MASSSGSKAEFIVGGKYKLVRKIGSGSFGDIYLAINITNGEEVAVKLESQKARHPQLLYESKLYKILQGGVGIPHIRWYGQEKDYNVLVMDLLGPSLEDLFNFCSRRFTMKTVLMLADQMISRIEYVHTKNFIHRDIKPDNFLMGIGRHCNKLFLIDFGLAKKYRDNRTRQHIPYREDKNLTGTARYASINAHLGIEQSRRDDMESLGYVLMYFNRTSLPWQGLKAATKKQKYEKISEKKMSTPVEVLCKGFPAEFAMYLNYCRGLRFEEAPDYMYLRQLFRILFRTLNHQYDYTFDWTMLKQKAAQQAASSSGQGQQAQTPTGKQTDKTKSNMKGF
Procedure: CSNK1A1-inhibitory activity of compounds of the present invention in presence of 1 μM adenosine-tri-phosphate (ATP) was quantified employing the CSNK1A1 assay as described in the following paragraphs. In essence, the enzyme activity is measured by quantification of the adenosine-di-phosphate (ADP), which is generated as a co-product of the enzyme reaction, via the “ADP-Glo™ Kinase Assay” kit from the company Promega. This detection system works as follows: In a first step the ATP not consumed in the kinase reaction is quantitatively converted to cAMP employing an adenylate cyclase (“ADP-Glo-reagent”), then the adenylate cyclase is stopped and the ADP generated in the kinase reaction converted to ATP which generates in a luciferase-based reaction a glow-luminescence signal (“Kinase Detection Reagent”). Recombinant fusion protein of N-terminal Glutathion-S-Transferase (GST) and full-length human CSNK1A1, expressed by baculovirus infected insect cells and purified via Glutathion affinity chromatography, was purchased from Life Technologies (product no. PV4174) and used as enzyme. As substrate for the kinase reaction the biotinylated peptide biotin-Ahx-KRRRAL-pS-VASLPGL (C-terminus in amide form) was used which can be purchased e.g. from the company Biosyntan (Berlin-Buch, Germany).
For the assay 50 nl of a 100 fold concentrated solution of the test compound in DMSO was pipetted into a white 1536-well microtiter plate (Greiner Bio-One, Frickenhausen, Germany), 2 μL of a solution of CSNK1A1 in aqueous assay buffer [50 mM HEPES pH 7.5, 10% (v/v) glycerol, 10 mM MgCl2, 50 mM NaCl, 1 mM dithiothreitol, 0.01% (w/v) bovine serum albumin, 0.01% (v/v) Triton X-100] were added and the mixture was incubated for 15 min at 22° C. to allow pre-binding of the test compounds to the enzyme before the start of the kinase reaction. […] The concentration of CSNK1A1 was adjusted depending of the activity of the enzyme lot and was chosen appropriate to have the assay in the linear range, a typical concentrations are about 0.0375 ng/μL. The reaction was stopped by the addition of 2.5 μL of “ADP-Glo-reagent” (1:1.5 fold diluted with water) and the resulting mixture was incubated at 22° C. for 1 h to convert the ATP not consumed in the kinase reaction completely […]. Subsequently 2.5 μL of the “kinase detection reagent” (1.2 fold more concentrated than recommended by the producer) were added, the resulting mixture was incubated at 22° C. for 1 h and then the luminescence measured with a suitable measurement instrument (e.g. Viewlux™ from Perkin-Elmer). The amount of emitted light was taken as a measure for the amount of ADP generated and thereby for the activity of the CSNK1A1.

human CSNK1A1 [2] = target: T1, human CSNK1A1; experiment: CSNK1A1 High ATP Assay (ADP-Glo, 1 mM ATP); details: read-out: CSNK1A1 high ATP assay IC50 [mol/l] (median)
Procedure: CSNK1A1-inhibitory activity of compounds of the present invention in presence of 1 mM adenosine-tri-phosphate (ATP) was quantified employing the CSNK1A1-high-ATP-assay as described in the following paragraphs. In essence, the enzyme activity is measured by quantification of the adenosine-di-phosphate (ADP), which is generated as a co-product of the enzyme reaction, via the “ADP-Glo™ Kinase Assay” kit from the company Promega. This detection system works as follows: In a first step the ATP not consumed in the kinase reaction is quantitatively converted to cAMP employing an adenylate cyclase (“ADP-Glo-reagent”), then the adenylate cyclase is stopped and the ADP generated in the kinase reaction converted to ATP which generates in a luciferase-based reaction a glow-luminescence signal (“Kinase Detection Reagent”).
Recombinant fusion protein of N-terminal Glutathion-S-Transferase (GST) and full-length human CSNK1A1, expressed by baculovirus infected insect cells and purified via Glutathion affinity chromatography, was purchased from Life Technologies (product no. PV4174) and used as enzyme. As substrate for the kinase reaction the biotinylated peptide biotin-Ahx-KRRRAL-pS-VASLPGL (C-terminus in amide form) was used which can be purchased e.g. from the company Biosyntan (Berlin-Buch, Germany).
For the assay 50 nl of a 100 fold concentrated solution of the test compound in DMSO was pipetted into a white low volume 384-well microtiter plate (Greiner Bio-One, Frickenhausen, Germany), 2 μL of a solution of CSNK1A1 in aqueous assay buffer [50 mM HEPES pH 7.5, 10% (v/v) glycerol, 10 mM MgCl2, 50 mM NaCl, 1 mM dithiothreitol, 0.01% (w/v) bovine serum albumin, 0.01% (v/v) Triton X-100] were added and the mixture was incubated for 15 min at 22° C. to allow pre-binding of the test compounds to the enzyme before the start of the kinase reaction. […] The concentration of CSNK1A1 was adjusted depending of the activity of the enzyme lot and was chosen appropriate to have the assay in the linear range, a typical concentration is about 0.4 ng/μL. The reaction was stopped by the addition of 2.5 μL of “ADP-Glo-reagent” (1:1.5 fold diluted with water) and the resulting mixture was incubated at 22° C. for 1 h to convert the ATP not consumed in the kinase reaction completely […]. Subsequently 2.5 μL of the “kinase detection reagent” (1.2 fold more concentrated than recommended by the producer) were added, the resulting mixture was incubated at 22° C. for 1 h and then the luminescence measured with a suitable measurement instrument (e.g. Viewlux™ from Perkin-Elmer). The amount of emitted light was taken as a measure for the amount of ADP generated and thereby for the activity of the CSNK1A1.

human CSNK1D = human CSNK1D (Homo sapiens (Human), UniProt P48730); experiment: CSNK1D Assay (ADP-Glo, 1 μM ATP); details: read-out: CSNK1D IC50 [mol/l] (median)
Sequence of human CSNK1D (P48730 whole entry): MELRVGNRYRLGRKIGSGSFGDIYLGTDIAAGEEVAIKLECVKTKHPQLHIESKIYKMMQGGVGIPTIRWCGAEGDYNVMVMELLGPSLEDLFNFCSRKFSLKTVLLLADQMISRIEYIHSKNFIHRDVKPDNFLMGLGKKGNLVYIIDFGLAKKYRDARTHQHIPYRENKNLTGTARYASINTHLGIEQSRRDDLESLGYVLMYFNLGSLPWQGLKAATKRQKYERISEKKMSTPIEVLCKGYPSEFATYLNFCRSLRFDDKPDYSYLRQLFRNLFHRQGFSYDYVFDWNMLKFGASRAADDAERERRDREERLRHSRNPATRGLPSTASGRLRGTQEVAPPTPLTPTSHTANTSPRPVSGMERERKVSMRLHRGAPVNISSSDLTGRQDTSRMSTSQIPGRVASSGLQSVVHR
Procedure: CSNK1 D-inhibitory activity of compounds of the present invention in presence of 1 μM adenosine-tri-phosphate (ATP) was quantified employing the CSNK1D assay as described in the following paragraphs. In essence, the enzyme activity is measured by quantification of the adenosine-di-phosphate (ADP), which is generated as a co-product of the enzyme reaction, via the “ADP-Glo™ Kinase Assay” kit from the company Promega. This detection system works as follows: In a first step the ATP not consumed in the kinase reaction is quantitatively converted to cAMP employing an adenylate cyclase (“ADP-Glo-reagent”), then the adenylate cyclase is stopped and the ADP generated in the kinase reaction converted to ATP which generates in a luciferase-based reaction a glow-luminescence signal (“Kinase Detection Reagent”). Recombinant fusion protein of N-terminal Glutathion-S-Transferase (GST) and full-length human CSNK1D, expressed by baculovirus infected insect cells and purified via Glutathion affinity chromatography, was purchased from Life Technologies (product no. PV3665) and used as enzyme. As substrate for the kinase reaction the biotinylated peptide Btn-Ahx-[…] (C-terminus in amide form) was used which can be purchased e.g. from the company Biosyntan (Berlin-Buch, Germany).
For the assay 50 nl of a 100 fold concentrated solution of the test compound in DMSO was pipetted into a white 1536-well microtiter plate (Greiner Bio-One, Frickenhausen, Germany), 2 μL of a solution of CSNK1D in aqueous assay buffer [50 mM HEPES pH 7.5, 10% (v/v) glycerol, 10 mM MgCl2, 50 mM NaCl, 1 mM dithiothreitol, 0.01% (w/v) bovine serum albumin, 0.01% (v/v) Triton X-100] were added and the mixture was incubated for 15 min at 22° C. to allow pre-binding of the test compounds to the enzyme before the start of the kinase reaction. […] The concentration of CSNK1 D was adjusted depending of the activity of the enzyme lot and was chosen appropriate to have the assay in the linear range, a typical concentration is about 0.5 ng/μL. The reaction was stopped by the addition of 2.5 μL of “ADP-Glo-reagent” (1:1.5 fold diluted with water) and the resulting mixture was incubated at 22° C. for 1 h to convert the ATP not consumed in the kinase reaction completely […]. Subsequently 2.5 μL of the “kinase detection reagent” (1.2 fold more concentrated than recommended by the producer) were added, the resulting mixture was incubated at 22° C. for 1 h and then the luminescence measured with a suitable measurement instrument (e.g. Viewlux™ from Perkin-Elmer). The amount of emitted light was taken as a measure for the amount of ADP generated and thereby for the activity of the CSNK1D.

[3] = target: wild-type Epidermal Growth Factor Receptor (EGFR) (Homo sapiens (Human), UniProt P00533); experiment: WT-EGFR Kinase Assay (TR-FRET, 2 mM ATP)
Sequence of wild-type Epidermal Growth Factor Receptor (EGFR) (P00533 669-1210): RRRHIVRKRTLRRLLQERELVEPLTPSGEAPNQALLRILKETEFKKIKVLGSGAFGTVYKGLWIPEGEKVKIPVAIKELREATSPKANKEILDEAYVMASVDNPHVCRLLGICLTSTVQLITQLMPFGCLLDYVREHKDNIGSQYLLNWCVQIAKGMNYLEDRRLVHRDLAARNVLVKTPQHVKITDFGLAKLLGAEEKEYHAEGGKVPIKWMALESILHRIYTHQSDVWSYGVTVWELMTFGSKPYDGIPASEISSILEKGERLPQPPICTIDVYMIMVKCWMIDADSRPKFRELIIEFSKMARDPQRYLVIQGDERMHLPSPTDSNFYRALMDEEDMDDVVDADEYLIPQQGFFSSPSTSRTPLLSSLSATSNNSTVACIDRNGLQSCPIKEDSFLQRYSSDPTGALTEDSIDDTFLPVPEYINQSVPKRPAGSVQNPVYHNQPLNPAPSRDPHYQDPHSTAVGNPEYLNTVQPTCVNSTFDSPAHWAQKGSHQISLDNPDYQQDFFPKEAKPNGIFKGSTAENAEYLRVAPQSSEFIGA

[4] = EGFR Wildtyp- 2 mM ATP IC50 [mol/l] (median)
[5] = read-out: EGFR Wildtyp- 2 mM ATP IC50 [mol/l] (median)

Row | Compound | IC50 (human CSNK1A1 [1]) [nM] | IC50 (human CSNK1A1 [2]) | IC50 (human CSNK1D) [nM] | IC50 [3, 4] [nM] | IC50 [3, 5] [nM]
1 | CCC(C(=O)Nc1cc(-c2[nH]c3c(c2Nc2ccccc2)C(=O)N(C)CC3)ccn1)c1ccc(F)cc1 (single isomer, unassigned; (-)) [Example 76, (−)-N-[4-(3-anilino-5-methyl-4-oxo-4,5,6,7-tetrahydro-1H-pyrrolo[3,2-c]pyridin-2-yl)pyridin-2-yl]-2-(4-fluorophenyl)butanamide] | 14.4 | 506 nM | 17.5 | > 20000 | –
2 | CC(C(=O)Nc1cc(-c2[nH]c3c(c2Nc2ccccc2F)C(=O)N(C)CC3)ccn1)c1ccc(F)cc1 (single isomer, unassigned; (-)) [Example 41, (−)-N-{4-[3-(2-fluoroanilino)-5-methyl-4-oxo-4,5,6,7-tetrahydro-1H-pyrrolo[3,2-c]pyridin-2-yl]pyridin-2-yl}-2-(4-fluorophenyl)propanamide] | 22.6 | 3530 nM | 31.2 | > 20000 | –
3 | CN(C)CCCC(C(=O)Nc1cc(-c2[nH]c3c(c2Nc2ccccc2)C(=O)N(C)CC3)ccn1)c1ccccc1 (single isomer, unassigned; (+)) [Example 60, (+)-N-[4-(3-anilino-5-methyl-4-oxo-4,5,6,7-tetrahydro-1H-pyrrolo[3,2-c]pyridin-2-yl)pyridin-2-yl]-5-(dimethylamino)-2-phenylpentanamide] | 7.34 | 437 nM | 11.8 | 7340 | –
4 | O=C1NC2(CC2)Cc2[nH]c(-c3ccnc(NC(=O)C(CC(F)F)c4ccc(F)cc4)c3)c(Nc3ccccc3)c21 (single isomer, unassigned; enantiomer 1) [Example 148, N-[4-(3′-anilino-4′-oxo-1′,4′,5′,7′-tetrahydrospiro[cyclopropane-1,6′-pyrrolo[3,2-c]pyridin]-2′-yl)pyridin-2-yl]-4,4-difluoro-2-(4-fluorophenyl)butanamide (Enantiomer 1)] | 8.82 | 12.8 nM | 8.31 | 3400 | –
5 | Cc1ccccc1Nc1c(-c2ccnc(NC(=O)C(CC(F)F)c3ccc(F)cc3)c2)[nH]c2c1C(=O)NC1(CCC1)C2 (racemic) [Example 143, 4,4-difluoro-2-(4-fluorophenyl)-N-{4-[3′-(2-methylanilino)-4′-oxo-1′,4′,5′,7′-tetrahydrospiro[cyclobutane-1,6′-pyrrolo[3,2-c]pyridin]-2′-yl]pyridin-2-yl}butanamide (Racemate)] | 16.7 | 32 nM | 18.4 | > 20000 | –
6 | CCN1CCc2[nH]c(-c3ccnc(NC(=O)C(C)c4ccc(F)cc4)c3)c(Nc3ccccc3)c2C1=O (single isomer, unassigned) [Example 25, N-[4-(3-anilino-5-ethyl-4-oxo-4,5,6,7-tetrahydro-1H-pyrrolo[3,2-c]pyridin-2-yl)pyridin-2-yl]-2-(4-fluorophenyl)propanamide] | 55.4 | 12700 nM and > 20000 nM | 88.6 | > 20000 | –
7 | CC1(C)Cc2[nH]c(-c3ccnc(NC(=O)C(CC(F)F)c4ccc(F)cc4)c3)c(Nc3cccc(F)n3)c2C(=O)N1 (single isomer, unassigned; enantiomer 2) [Example 130, 4,4-difluoro-2-(4-fluorophenyl)-N-(4-{3-[(6-fluoropyridin-2-yl)amino]-6,6-dimethyl-4-oxo-4,5,6,7-tetrahydro-1H-pyrrolo[3,2-c]pyridin-2-yl}pyridin-2-yl)butanamide (Enantiomer 2)] | 26.7 | 1340 nM | 71.6 | – | > 20000
8 | CN1CCc2[nH]c(-c3ccnc(NC(=O)Cc4cccc(S(C)(=O)=O)c4)c3)c(Nc3ccccc3)c2C1=O [Example 69, N-[4-(3-anilino-5-methyl-4-oxo-4,5,6,7-tetrahydro-1H-pyrrolo[3,2-c]pyridin-2-yl)pyridin-2-yl]-2-[3-(methanesulfonyl)phenyl]acetamide] | 3.13 | 81.7 nM | 4.68 | – | 510
9 | Cc1ccccc1Nc1c(-c2ccnc(NC(=O)C(C)c3ccc(F)cc3)c2)[nH]c2c1C(=O)NC(C)(C)C2 (racemic) [Example 132, N-{4-[6,6-dimethyl-3-(2-methylanilino)-4-oxo-4,5,6,7-tetrahydro-1H-pyrrolo[3,2-c]pyridin-2-yl]pyridin-2-yl}-2-(4-fluorophenyl)propanamide (Racemate)] | 24.3 | 915 nM | 32.9 | > 20000 | –
